{
  "source": "ChEMBL document CHEMBL3853302",
  "about": "“Anti-inflammatory and Quinone Reductase Inducing Compounds from Fermented Noni (Morinda citrifolia) Juice Exudates” (J Nat Prod, 2016)",
  "key": {"[1]": {"assay": "Induction of quinone reductase-1 in mouse Hepa-1c1c7 cells assessed as reduction of 3-(4,5-dimethylthiazol-2-yl)-2,5-diphenyltetrazolium bromide at 50 uM after 48 hrs by crystal violet staining-based assay relative to control"}, "HEK293": {"tested_on": "HEK293", "assay": "Inhibition of TNF-alpha-activated NFkappaB (unknown origin) expressed in HEK293 cells at 50 uM after 6 hrs by luciferase reporter gene assay relative to control", "format": "cell-based", "conditions": "Homo sapiens"}, "[2]": {"assay": "Toxicity in HEK293 cells assessed as decrease in cell survival at 50 uM", "format": "cell-based", "conditions": "human, hek293, 50 µM"}, "[3]": {"assay": "Inhibition of TNF-alpha-activated NFkappaB (unknown origin) transfected in HEK293 cells after 6 hrs by luciferase reporter gene assay", "format": "cell-based", "conditions": "Homo sapiens, HEK293, 6 h"}},
  "note": "Active and inactive are the calls of the source. The calls are words filed in the database; no cut-off is given here.",
  "data": [
    {"compound": "COC(=O)C1=CO[C@@H](O[C@@H]2O[C@H](CO)[C@@H](O)[C@H](O)[C@H]2O)[C@@H]2C(CO)=C[C@@H](O)[C@H]12", "values": [
      {"measurement": "fold change (FC)", "setting": "[1]", "value": 2.5}
    ]},
    {"compound": "C[C@@H]1O[C@@H](OC[C@H]2O[C@@H](Oc3c(-c4ccc(O)cc4)oc4cc(O)cc(O)c4c3=O)[C@H](O)[C@@H](O)[C@@H]2O)[C@H](O)[C@H](O)[C@H]1O", "note": "[NICOTIFLOROSIDE]", "values": [
      {"measurement": "inhibition", "setting": "HEK293", "value": 62, "unit": "%"},
      {"measurement": "Activity", "setting": "[2]", "value": "Non-Toxic"}
    ]},
    {"compound": "COc1cc2oc(=O)ccc2cc1O[C@@H]1O[C@H](CO)[C@@H](O)[C@H](O)[C@H]1O", "values": [
      {"measurement": "Activity", "setting": "[1]", "value": "Active"}
    ]},
    {"compound": "Cc1ccc(S(=O)(=O)N[C@@H](Cc2ccccc2)C(=O)CCl)cc1", "note": "[TPCK]", "values": [
      {"measurement": "IC50", "setting": "[3]", "value": 3.8, "unit": "µM"}
    ]},
    {"compound": "O=C1O[C@@H]2[C@@H](O)CO[C@]2(O)[C@@]1(O)C/C=C/c1ccc(O)c(O)c1", "values": [
      {"measurement": "inhibition", "setting": "HEK293", "value": 70, "unit": "%"},
      {"measurement": "Activity", "setting": "[2]", "value": "Non-Toxic"}
    ]},
    {"compound": "CCCCO[C@H]1C=C(CO)[C@H]2[C@H](O[C@@H]3O[C@H](CO)[C@@H](O)[C@H](O)[C@H]3O)OC=C(C(=O)O)[C@H]21", "values": [
      {"measurement": "fold change (FC)", "setting": "[1]", "value": 2.3}
    ]}
  ]
}
